PubChem BioAssay AID1845198 (Molecular Pharmacology Branch, DTP, NCI, 2023)
“And” between values parts separate entries of the source, which are not always exact repeats. Identical values can stand only once.

System: 425362-245-T-J1 tumor spheroids, viability % test/control
Test: Anticancer human tumor 425362-245-T-J1 patient-derived melanoma cell line growth inhibition
Settings: spheroids with HUVEC and MSC; for viability, T/C: stronger effect = lower value
Description: Multicellular complex tumor spheroid response to DNA repair inhibitors in combination with DNA-damaging drugs
This study explores the anticancer activities of DNA-damaging drugs and inhibitors of DNA damage repair, both as single agents and in combinations. Complex tumor spheroids comprised of malignant cells, endothelial cells and mesenchymal stem cells served as an in vitro model for human solid tumors. This model system incorporates physiologically relevant features and patient-derived or established malignant cell lines with clinically relevant genetic alterations from many tumor types. Twenty-six patient-derived or established malignant cell lines were evaluated representing sarcoma, melanoma, small cell lung cancer (SCLC), non-small cell lung cancer (NSCLC), as well as bladder, ovarian and pancreatic cancers. The concentration ranges selected for each drug and investigational agent were based upon clinically achievable concentrations if the clinical Cmax of the agent was known.
Compounds. The drugs and compounds olaparib (NSC753686), talazoparib (NSC767125), berzosertib (NSC777718), elimusertib (NSC800525), nedisertib (NSC802822), VX-984 (NSC792969), AZD-1390 (NSC803789), temozolomide (NSC362856), topotecan (NSC609699), trabectedin (NSC813783), staurosporine (NSC755774), and gemcitabine (NSC613327) were obtained from the National Cancer Institute (NCI) Developmental Therapeutics Program Chemical Repository. The FDA-approved anticancer drug set is available from the Developmental Therapeutics Program at https://dtp.cancer.gov/organization/dscb/obtaining/available_plates.htm. […] The stock solutions were prepared in dimethyl sulfoxide (DMSO, Sigma-Aldrich, St. Louis, MO, cat. D2650) at 400-fold the tested concentration and stored at -70 degrees C. Prior to their use, the stock solutions were diluted in fresh medium and the final DMSO concentration in the assay was 0.25% (v/v). All drugs and investigational agents were tested over a range starting from a high concentration at or near the clinical Cmax and decreasing in half-log increments. If the clinical Cmax for an agent had not been determined, the highest concentration tested was 10 microM.
Cell Lines. The patient-derived cancer cell (PDC) lines: 156681-154-R-J1-PDC, 283228-195-R-J1-PDC, 287954-098-R-J1-PDC, 292921-168-R-J2-PDC, 349418-098-R-PDC, 425362-245-T-J1-PDC, 556581-035-R-J1-PDC, and BL0293-F563-PDC were received from the NCI Patient-Derived Models Repository (PDMR, https://pdmr.cancer.gov). The established cell lines HS-SY-2 (RRID:CVCL_8719), MPNST, and SYO-1 (RRID:CVCL_7146) were obtained from the Sloan Kettering Institute. The alveolar soft parts sarcoma cell line ASPS-1 (RRID:CVCL_S738) was established at the NCI and grown from internal seed stocks. The following established cell lines were purchased from the American Type Culture Collection (ATCC, Manassas, VA): G-401 (ATCC, cat. CRL-1441, RRID:CVCL_0270), SW982 (ATCC, cat. HTB-93, RRID:CVCL_1734), VA-ES-BJ (ATCC, cat. CRL-2138, RRID:CVCL_1785), NCI-H719 (ATCC, cat. CRL-5837, RRID:CVCL_1582), NCI-H196 (ATCC, cat. CRL-5823, RRID:CVCL_1509), NCI-H841 (ATCC, cat. CRL-5845, RRID:CVCL_1595), NCI-H1618 (ATCC, cat. CRL-5879, RRID:CVCL_1480), NCI-H1876 (ATCC, cat. CRL-5902, RRID:CVCL_1503), DMS 114 (ATCC, cat. CRL-2066; RRID:CVCL_1174), NCI-H211 (ATCC, cat. CRL-5824; RRID:CVCL_1529), and SW 1271 (ATCC, cat. CRL-2177, RRID:CVCL_1716). The small cell lung cancer cell line COR-L88 was purchased from Sigma-Aldrich (cat. 92031917-1VL, RRID:CVCL_1141). The non-small cell lung cancer cell lines NCI-H226 (RRID:CVCL_1544) and NCI-H322M (RRID:CVCL_1557) were established at the NCI and grown from internal seed stocks. Pooled donor human umbilical vein endothelial cells (HUVEC, Lonza, cat. CC-2519) and human mesenchymal stem cells (hMSC, Lonza, cat. PT-2501) were purchased from Lonza (Walkersville, MD).
Cell Culture. All cells were maintained in an incubator at 37 degrees C and 5% CO2 with 95% humidity. […]

[1] = compound alone, run of 10/17/2019
[2] = compound alone, run of 10/25/2019
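Note: spheroids exposed to agents for 7 days.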
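Throughout, for viability, T/C: 100% = DMSO vehicle control viability.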

SMILES	viability, T/C (compound 0.0316 µM)	viability, T/C (compound 0.1 µM)	viability, T/C (compound 0.316 µM)	viability, T/C (compound 1 µM)	viability, T/C (compound 3.16 µM)	viability, T/C (compound 10 µM)	IC50 (curve of compound)	viability, T/C (compound 0.00949 µM)	viability, T/C (compound 0.03 µM)	viability, T/C (compound 0.0949 µM)	viability, T/C (compound 0.3 µM)	viability, T/C (compound 0.949 µM)	viability, T/C (compound 3 µM)	other results
CC(C)n1c(=O)n(C)c2cnc3cc(F)c(-c4ccc(OCCCN5CCCCC5)nc4)cc3c21	56.5% and 67.4% and 67.2%	43.4% and 60.3% and 69.2%	44.1% and 39.9% and 36.1%	27.5% and 20.1% and 23.2%	17.4% and 14.7% and 14.3%	7.66% and 5.49% and 5.26%	72.1 nM and 175 nM and 198 nM							
CC1COCCN1c1cc(-c2ccnn2C)c2ccnc(-c3ccn[nH]3)c2n1 (stereo unspecified)	34.4% and 43.6% and 45.5%	13.7% and 12.7% and 17.3%	7.51% and 9.92% and 13.6%	6.44% and 8.46% and 7.34%	6.81% and 10.8% and 7.05%	8.79% and 9.71% and 7.27%	< 31.6 nM							
CC[C@@]1(O)C(=O)OCc2c1cc1n(c2=O)Cc2cc3c(CN(C)C)c(O)ccc3nc2-1								89.3% [middle of 10 runs]	38.3% [middle of 10 runs]	6.41% [middle of 10 runs]	1.78% [middle of 10 runs]			IC50 [1]: 21.5 nM [middle of 5 runs]; IC50 [2]: 23.4 nM [middle of 4 runs]
CNCc1ccc(-c2cc(-c3nc(-c4ccc(S(=O)(=O)C(C)C)cc4)cnc3N)on2)cc1							84 nM and 79.5 nM and 151 nM	93.8% and 103% and 111%	103% and 83.1% and 105%	44.3% and 46.4% and 79.6%	8.53% and 6.26% and 5.89%	3.67% and 5.06% and 2.41%	0.18% and 0.4% and 0.23%	
COc1cc(C)[nH]c(=O)c1CN1CCc2c(Cl)cc(C(OC)C3COC3)c(Cl)c2C1=O (stereo unspecified)	107% and 103% and 97%	103% (2×) and 108%	106% and 97.8% and 99.9%	95.9% and 103% and 98.4%	97.4% and 104% and 96.1%	89.9% and 92.6% and 88.8%	> 10000 nM							
COc1cc2c(cc1O)CCNC21CSC2c3c(OC(C)=O)c(C)c4c(c3C(COC1=O)N1C(O)C3Cc5cc(C)c(OC)c(O)c5C(C21)N3C)OCO4 (stereo unspecified)														viability, T/C (compound 30 pM): 98% [middle of 10 runs]; viability, T/C (compound 94.9 pM): 95.6% [middle of 10 runs]; viability, T/C (compound 0.0003 µM): 40.8% [middle of 10 runs]; viability, T/C (compound 0.000949 µM): 0.32% [middle of 9 runs]; viability, T/C (compound 0.003 µM): 0.21% [middle of 9 runs]; IC50 [2]: 0.243 nM [middle of 9 runs]
COc1ccc([C@@H](O)c2cc(-c3ncnc4cc(N5CCOCC5)ccc34)c(F)cc2Cl)nn1	101% and 96.8% and 105%	92.6% and 110% and 104%	90.7% and 98.8% and 92.3%	65.5% and 76.1% and 72.6%	38% and 44.5% and 42.9%	18.8% and 22.8% and 19.7%	1930 nM and 2520 nM and 2400 nM							
Cc1cc(C)c(CNC(=O)c2cc(-c3ccc(CN4CCOCC4)cc3)cc3c2cnn3C2CCCC2)c(=O)[nH]1	101% and 97.2% and 92.7%	93% and 116% and 102%	103% and 97.9% and 84.5%	100% and 80.2% and 86.5%	81.8% and 49.8% and 46.3%	42.6% and 15.2% and 14.8%	8060 nM and 3010 nM and 2860 nM							
Cc1sc2c(c1C)C(c1ccc(Cl)cc1)=NC(CC(=O)Nc1ccc(O)cc1)c1nnc(C)n1-2 (stereo unspecified)							95.3 nM and 85.6 nM and 80.2 nM	97.8% and 84.1% and 108%	91.2% and 76% and 93%	49.5% and 47.9% and 42.8%	12.8% and 12% and 8.15%	5.36% and 3.14% and 2.44%	2.57% and 1.92% and 2.11%	
Cn1ncnc1[C@H]1c2n[nH]c(=O)c3cc(F)cc(c23)N[C@@H]1c1ccc(F)cc1							29 nM and 22 nM and 14.1 nM	74.9% and 69% and 59.1%	46.1% and 42.9% and 33.5%	35.3% and 25.2% and 18.1%	16.1% and 14.1% and 15.6%	10.1% and 9.44% and 9.39%	3.22% and 2.7% and 1.7%	
Cn1nnc2c(C(N)=O)ncn2c1=O					106% [middle of 10 runs]									viability, T/C (compound 31.6 µM): 108% [middle of 10 runs]; viability, T/C (compound 100 µM): 92.1% [middle of 10 runs]; IC50 [1]: > 100000 nM
O=C(c1cc(Cc2n[nH]c(=O)c3ccccc23)ccc1F)N1CCN(C(=O)C2CC2)CC1							2140 nM and 3840 nM and 2500 nM			92.6% and 110% and 97.2%	82.7% and 97.3% and 92.5%	73.7% and 88.9% and 75.7%	41.4% and 60.6% and 45.6%	viability, T/C (compound 9.49 µM): 12% and 18.8% and 18.9%; viability, T/C (compound 30 µM): 7.13% and 11.4% and 9.39%
[2H]c1nc(C)nc([2H])c1-c1cc(NC[C@@H](C)c2cccc3c(C(=O)NC)ccnc23)ncn1	103% and 96.9% and 88.3%	97.1% and 90.8% and 81.5%	112% and 98.8% and 69.9%	108% and 104% and 63.5%	110% and 96.8% and 52.8%	103% and 96.5% and 25.2%	> 10000 nM and 2820 nM							
